# Test results published in patent US20050075284A1, “Pharmaceutical compositions comprising vip-related peptides for the treatment of sexual disorders” (priority 2001, published 2005).
# “Also recorded” adds a separate entry of the source. Where no end group is shown, it is not given here.
# Tests used:
# [1] = cited from earlier work
# cGMP formation = details: versus VIP; cited from earlier work
# vaginal muscle = test: Rabbit vaginal contraction in organ bath (force transducer); format: cell-based, New Zealand female rabbit
# Protocol: The vagina of 12-week-old New Zealand female rabbit was removed, exiced to 1 cm length and immersed in 10 ml of capacity organ bath connected to an external reservoir of Krebs-Henseleit in constant temperature of 37° C. The solution was oxygenated (95%O2/[…]). The effect of VIP and SNV on vaginal contraction was measured by attaching the vaginal muscle to a force transducer.
# [2] = system: uterine smooth muscle activity and vaginal blood flow; details: systemic administration to females; cited from earlier work
# penile erection = details: in the male; cited from earlier work
Substance,bioavailability [1],potency in enhancing cGMP formation relative to VIP (cGMP formation) [fold],"effect on contraction force (inotropic effect) (vaginal muscle; 0.3 μM peptide, 0.5 μM phenylephrine, FIG. 2)","effect on rate of vaginal contraction (vaginal muscle; 0.3 μM peptide, contraction stimulated by 0.5 μM phenylephrine, FIG. 2)","effect on vaginal contraction at high concentration (vaginal muscle; 1.5 μM peptide (b76 prints 1.5 M), contraction stimulated by 0.5 μM phenylephrine, FIG. 3)",uterine smooth muscle activity [2],vaginal blood flow [2],penile erection (penile erection),"effect on vaginal contraction (vaginal muscle; 0.3 μM peptide, preliminary results, FIG. 1)"
Stearoyl-norleucine^17-VIP [SNV],increased stability and bioavailability,1000,reduced the contraction force,attenuated the rate of vaginal contraction,blocked vaginal contraction; also recorded: neutralized vaginal contraction,–,–,–,–
"vasoactive intestinal peptide (HSDAVFTDNYTRLRKQMAVKKYLNSILN; ends and bridges not checked; UniProt P01282 125-152, looked up) [VIP]",–,–,–,–,–,decrease uterine smooth muscle activity,increase vaginal blood flow,induces penile erection,neutralized vaginal contraction
